What all share (format): in vivo, mouse
The subject of assay [1] is collagen related genes in mice livers. Kind of assay: Liver mRNA levels of collagen related genes in mice of Example 5 (RT-PCR). The settings on record: 10 mg/kg; for Relative mRNA level of α-SMA: vehicle 1 ± 0.1; for Relative mRNA level of α2(I) collagen: vehicle 1.1 ± 0.1; for Relative mRNA level of α1(I) collagen: vehicle 1.1 ± 0.2. From the text: NAFLD with excessive fat accumulation in liver will affect the blood and oxygen supplies to liver and the metabolism of liver organ, resulting in amounts of cell swelling, inflammatory infiltration and necrosis in liver. […] The levels of various collagen contents are higher in patients with liver cirrhosis. Masson's staining is a three-color staining protocol used in histology. It is widely used to study hepatic pathologies (cirrhosis). It's an authoritative and classic method to detect the existence and extend of accumulation of the collagen fiber. Sirius Red staining is also presented as a method for collagen determination. In this example, the Masson's staining and […] were performed to detect the collagen deposit in high fat diet fed db/db mice in Example 5. The Masson's staining kit (Nanjing Jiancheng Engineering Institute, China) was used for the staining of liver sections in Example 5. The Sirius red staining is performed as standard procedure. RT-PCR was used detect the expression of collagen and related genes such as α1(I) collagen, α2(I)collagen, α-SMA and MCP-1 in mice livers.

A further assay has as its system KK-Ay mice. Kind of assay: Serum metabolic parameters in high-fat diet fed diabetic KK-Ay mice. The settings on record: serum, 20 mg/kg for 14 days. From the text: KK-Ay mice (KK/Upj-Ay/J) are animal models with moderate obese and diabetes with insulin resistance. KK-Ay mice develop hyperglycemia, hyperinsulinemia, glucose intolerance and obesity as well as fat accumulation in liver by eight weeks of age. Pancreatic islets are hypertrophied and the β-cells are degranulated. db/db mice (BKS.Cg-Dockr+/+ Lepr^db/Jnju) are animal models of type II diabetes. They have the phenotype of insulin resistance. These model mice were used to detect the functions of our compounds on metabolic diseases.
(§1) 8-10 weeks age mice were maintained as example 4, and fed with high-fat diet (Research Diets, D12492). Mice were i.p. injected with compounds once daily for 7, 10, 11 or 14 days as indicated in each table. After the last compounds injection, mice were fasted for 6 hours with free access to water, and then sacrificed. Part of each liver was fixed in 4% paraformaldehyde for H&E staining, and other liver tissues were stored in liquid nitrogen for enzyme activity measurement and gene expression analysis by RT-PCR. The serums were collected to measure metabolic parameters, including serum glucose, insulin, cholesterol, free fatty acid (FFA) and triglyceride levels. Serum glucose was analyzed using glucose oxidase method (Applygen, Beijing, China). The blood glucose in Table 11 was measured with Berenger blood glucose test strips (B/BRAUN, German) from blood by cutting mice tail after the 6th injection and following fast for 16 hours. Serum cholesterol and FFA were analyzed using Cholesterol Assay Kit and FFA Assay Kit (Bioassay Systems, USA; Nanjing Jiancheng Bioengineering Institute, China; FFA ELISA, R&D, USA), respectively. Serum triglyceride was analyzed using Triglyceride Assay Kit (Bioassay Systems, USA; WAKO Chemicals Inc., Japan; Applygen, Beijing, China). Liver triglyceride was analyzed using Tissue triglyceride assay kit (Applygen, Beijing, China). Serum insulin levels were measured by the Ultra Sensitive Mouse Insulin ELISA Kit (Crystal Chem. Inc., USA). RNA was isolated using Tissue RNA kit (Omega Bio-Tek, GA). The first strand cDNA were obtained by TAKARA reverse transcription kit. Real-time quantitative PCR were performed on a CFX96™ Real-Time PCR Detection System (Bio-Rad) using SYBR Premix Ex Taq™ (TAKARA). Relative mRNA expression levels were normalized to actin levels.

In assay [2] the test system is genes related to metabolism in liver of KK-Ay mice. Kind of assay: Liver mRNA levels of metabolism genes in KK-Ay mice (RT-PCR). The settings on record: 20 mg/kg for 14 days. The procedure:
as §1
Triglyceride accumulation is due to the imbalance between triglyceride synthesis and clearance. One key gene controlling hepatic lipogenesis is SREBP-1c, whose up-regulation has been implicated in occurrence of hepatic steatosis. Liver-specific inhibition of ChREBP improves hepatic steatosis and insulin resistance in ob/ob mice (see e.g., Renaud (2006) Diabetes, 55(8):2159-70.). […] The gene expression pattern in KK-Ay mice liver further explained the underlying molecular mechanism for the reduction of lipid accumulation by the FXR-ligand compounds (Table 9).

The mark [3] stands for this setting: vehicle = 1, listed as tschimganine.
The mark [4] stands for this setting: vehicle = 1, listed as feroline.

Molecules are shown by their SMILES. Marks after values point to notes of the source that are not given here.

As to `CC1(C)[C@@H]2CC[C@@]1(C)[C@@H](OC(=O)c1ccc(O)cc1)C2` [Tschimgine], in assay [1], the “Relative mRNA level of α-SMA” value is 0.47 ± 0.1^a, the “Relative mRNA level of α2(I) collagen” value was 0.75 ± 0.9^a and the “Relative mRNA level of α1(I) collagen” value was 0.6 ± 0.13^a.
For the compound `COc1cc(C(=O)O[C@H]2C[C@H]3CC[C@]2(C)C3(C)C)ccc1O` [Tschimganine], in assay [1], the “Relative mRNA level of α-SMA” value is 0.56 ± 0.12^a and the “Relative mRNA level of α1(I) collagen” value was 0.6 ± 0.12^a. For the same compound, in assay [1] (vehicle 1.2 ± 0.2), the “Relative mRNA level of MCP-1” value is on record as 0.62 ± 0.13^a. Further, in the assay on KK-Ay mice, the “FFA (μM)” value is 151 ± 14^a μM, the “Glucose (mg/dl)” value is 123 ± 10^b mg/dl and the “Triglyceride (mg/dl)” value is reported as 134 ± 15^a mg/dl. In assay [2] (vehicle = 1), the “mRNA levels in liver, CHREBP” value is given as 0.43 ± 0.08^a; the “mRNA levels in liver, FDFT1” value is listed as 0.77 ± 0.06^a; the “mRNA levels in liver, G6PC” value is recorded as 0.59 ± 0.08^a; the “mRNA levels in liver, GK” value is 0.54 ± 0.07^a. In addition, the “mRNA levels in liver, SREBP1c” value in assay [2] (vehicle = 1) was 0.38 ± 0.05^a. Moreover, in assay [2] (setting [3]), the “mRNA levels in liver, CHREBP” value is listed as “decreased” and the “mRNA levels in liver, SREBP1c” value is “decreased”.
With `C/C1=C\CCC(C)(O)/C=C/C(C(C)C)C(OC(=O)c2ccc(O)cc2)C1` (stereo not drawn) [Feroline], in assay [1], the “Relative mRNA level of α-SMA” value is 0.73 ± 0.06^a, the “Relative mRNA level of α2(I) collagen” value was 0.6 ± 0.06^a and the “Relative mRNA level of α1(I) collagen” value is recorded as 0.37 ± 0.1^a. Besides, in the assay with KK-Ay mice, the “Cholesterol (mg/dl)” value is given as 116 ± 10^a mg/dl, the “FFA (μM)” value was 122 ± 30^b μM, the “Glucose (mg/dl)” value was 177 ± 16^a mg/dl and the “Triglyceride (mg/dl)” value is recorded as 136 ± 8^a mg/dl. Besides, in assay [2] (vehicle = 1), the “mRNA levels in liver, CHREBP” value is listed as 0.4 ± 0.1^b; the “mRNA levels in liver, FDFT1” value is recorded as 0.75 ± 0.1^a; the “mRNA levels in liver, G6PC” value is given as 0.66 ± 0.07^a; the “mRNA levels in liver, GK” value is given as 0.74 ± 0.11. The “mRNA levels in liver, SREBP1c” value in assay [2] (vehicle = 1) is reported as 0.3 ± 0.08^b. Also, in assay [2] (setting [4]), the “mRNA levels in liver, CHREBP” value is reported as “decreased” and the “mRNA levels in liver, SREBP1c” value is reported as “decreased”.

Values taken from US20180116993A1, “MODULATORS OF FARNESOID X RECEPTOR AND METHODS FOR THE USE THEREOF” (XIAMEN UNIVERSITY, priority 2015, published 2018).
